These are literature values, as cited in patent publication US20250381170A1, “Low Concentration Delivery of an Ergoline Derivative for Treatment of a Headache” (Relevale, Inc., priority 2021, published 2025).

Among the targets are dopamine D3 receptors (Homo sapiens, UniProt P35462); dopamine D2L receptors (Homo sapiens, UniProt P14416); 5-HT1Dα receptors (Homo sapiens, UniProt P28221); 5-HT1Dβ receptors (Homo sapiens, UniProt P28222).
For data set [1], the system named is noradrenaline α, receptors.
The target of data set [2] is T1, serotonin 5-HT1A receptors (Homo sapiens, UniProt P08908).
T1 sequence (P08908 1-422): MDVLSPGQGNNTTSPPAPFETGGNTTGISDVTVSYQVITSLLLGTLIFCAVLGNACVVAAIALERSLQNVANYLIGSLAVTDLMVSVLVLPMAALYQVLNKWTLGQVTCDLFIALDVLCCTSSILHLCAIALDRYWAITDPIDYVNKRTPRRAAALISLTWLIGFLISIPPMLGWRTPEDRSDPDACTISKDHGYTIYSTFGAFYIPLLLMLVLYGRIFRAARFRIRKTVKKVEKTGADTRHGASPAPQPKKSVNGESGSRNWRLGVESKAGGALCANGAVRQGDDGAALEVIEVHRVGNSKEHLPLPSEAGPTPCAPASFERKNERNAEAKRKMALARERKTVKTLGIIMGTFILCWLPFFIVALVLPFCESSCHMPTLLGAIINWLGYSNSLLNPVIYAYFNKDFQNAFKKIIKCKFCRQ

The conditions of data set [3]: oral dosage forms.
In data set [4] the target is T2, serotonin 5-HT2C receptors (Homo sapiens, UniProt P28335).
T2 sequence (P28335 33-458): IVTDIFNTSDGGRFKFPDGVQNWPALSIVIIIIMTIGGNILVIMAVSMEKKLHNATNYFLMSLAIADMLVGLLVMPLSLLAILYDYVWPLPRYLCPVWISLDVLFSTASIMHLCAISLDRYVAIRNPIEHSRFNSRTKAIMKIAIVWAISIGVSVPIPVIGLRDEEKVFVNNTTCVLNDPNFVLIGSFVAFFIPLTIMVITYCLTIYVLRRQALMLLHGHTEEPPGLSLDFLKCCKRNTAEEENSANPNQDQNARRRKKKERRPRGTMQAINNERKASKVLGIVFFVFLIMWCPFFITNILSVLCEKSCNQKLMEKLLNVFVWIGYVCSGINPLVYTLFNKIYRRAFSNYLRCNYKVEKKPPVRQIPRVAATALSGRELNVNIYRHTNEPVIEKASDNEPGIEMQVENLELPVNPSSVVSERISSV

The target in data set [5] is T3, noradrenaline α2A receptors (Homo sapiens, UniProt P08913).
T3 sequence (P08913 1-465): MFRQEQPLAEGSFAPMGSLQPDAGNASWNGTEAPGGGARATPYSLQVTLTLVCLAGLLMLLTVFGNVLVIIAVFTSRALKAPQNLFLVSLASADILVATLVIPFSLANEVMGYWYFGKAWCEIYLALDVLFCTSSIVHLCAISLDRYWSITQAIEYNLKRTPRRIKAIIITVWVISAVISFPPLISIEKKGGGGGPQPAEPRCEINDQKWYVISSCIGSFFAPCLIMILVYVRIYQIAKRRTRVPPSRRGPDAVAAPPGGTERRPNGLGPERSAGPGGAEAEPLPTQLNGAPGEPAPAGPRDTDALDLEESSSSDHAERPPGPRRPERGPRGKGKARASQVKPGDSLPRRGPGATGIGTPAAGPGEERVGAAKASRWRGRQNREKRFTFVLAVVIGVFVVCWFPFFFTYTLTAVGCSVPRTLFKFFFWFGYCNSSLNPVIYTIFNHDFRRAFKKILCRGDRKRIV

For data set [6] the following is noted: within 24 hours after treatment; sumatriptan-treated patients.

Sequence of 5-HT1Dα receptors (P28221 whole entry): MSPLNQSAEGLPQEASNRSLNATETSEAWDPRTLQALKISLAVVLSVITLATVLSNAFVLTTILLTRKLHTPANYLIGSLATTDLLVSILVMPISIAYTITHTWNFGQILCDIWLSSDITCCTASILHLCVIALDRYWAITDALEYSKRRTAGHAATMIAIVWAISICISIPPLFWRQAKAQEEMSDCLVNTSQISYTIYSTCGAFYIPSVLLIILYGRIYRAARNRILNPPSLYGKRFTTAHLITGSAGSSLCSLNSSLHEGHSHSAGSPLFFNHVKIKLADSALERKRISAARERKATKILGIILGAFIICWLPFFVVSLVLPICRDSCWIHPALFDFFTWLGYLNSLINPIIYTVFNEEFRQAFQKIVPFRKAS
Sequence of 5-HT1Dβ receptors (P28222 whole entry): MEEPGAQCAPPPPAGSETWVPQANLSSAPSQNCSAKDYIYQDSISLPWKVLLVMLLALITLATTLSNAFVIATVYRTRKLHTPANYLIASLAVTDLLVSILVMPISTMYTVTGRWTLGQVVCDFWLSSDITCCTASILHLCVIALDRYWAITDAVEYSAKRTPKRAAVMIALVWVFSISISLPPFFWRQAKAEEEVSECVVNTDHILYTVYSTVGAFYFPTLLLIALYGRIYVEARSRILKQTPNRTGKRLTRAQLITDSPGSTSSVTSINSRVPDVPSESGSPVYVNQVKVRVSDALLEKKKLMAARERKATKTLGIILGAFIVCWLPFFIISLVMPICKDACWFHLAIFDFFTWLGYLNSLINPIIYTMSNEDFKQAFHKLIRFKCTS
Sequence of dopamine D2L receptors (P14416 whole entry): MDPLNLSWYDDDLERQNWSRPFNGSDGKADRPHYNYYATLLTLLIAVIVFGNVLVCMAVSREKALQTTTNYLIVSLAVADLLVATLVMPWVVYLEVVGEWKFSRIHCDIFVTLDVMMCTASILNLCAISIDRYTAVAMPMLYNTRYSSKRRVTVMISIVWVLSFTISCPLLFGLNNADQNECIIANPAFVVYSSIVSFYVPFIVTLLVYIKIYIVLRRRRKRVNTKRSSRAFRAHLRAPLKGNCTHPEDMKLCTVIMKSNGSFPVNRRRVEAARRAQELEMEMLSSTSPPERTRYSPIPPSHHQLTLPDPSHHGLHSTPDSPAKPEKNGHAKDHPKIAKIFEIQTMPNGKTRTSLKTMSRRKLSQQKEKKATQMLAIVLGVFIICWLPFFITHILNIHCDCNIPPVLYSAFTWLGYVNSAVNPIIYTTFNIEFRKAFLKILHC
Sequence of dopamine D3 receptors (P35462 whole entry): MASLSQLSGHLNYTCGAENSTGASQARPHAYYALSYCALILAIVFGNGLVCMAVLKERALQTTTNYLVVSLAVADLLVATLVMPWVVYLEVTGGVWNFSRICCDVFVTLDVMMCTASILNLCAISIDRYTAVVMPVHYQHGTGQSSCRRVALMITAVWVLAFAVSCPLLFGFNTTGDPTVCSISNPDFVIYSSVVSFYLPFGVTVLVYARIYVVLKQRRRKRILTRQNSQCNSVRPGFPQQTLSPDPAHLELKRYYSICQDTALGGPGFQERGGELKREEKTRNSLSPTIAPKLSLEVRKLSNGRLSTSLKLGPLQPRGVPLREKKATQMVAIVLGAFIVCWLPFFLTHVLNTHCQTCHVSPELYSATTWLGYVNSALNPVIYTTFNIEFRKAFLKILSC

On to `CN1C[C@H](C(=O)N[C@]2(C)O[C@@]3(O)[C@@H]4CCCN4C(=O)[C@H](Cc4ccccc4)N3C2=O)C[C@@H]2c3cccc4[nH]cc(c34)C[C@H]21` [DHE, Dihydroergotamine], for which the binding affinity result (at dopamine D3 receptors; in [1]; at dopamine D2L receptors; in [2]; in [4]; at 5-HT1Dα receptors) was “high affinity” throughout. Also, the binding affinity entry (on 5-HT1Dβ receptors; in [5]) was “high affinity” in each case. For the same compound, the “absorption through the gut” value in data set [3] is “poorly absorbed”.
Turning to `CNS(=O)(=O)Cc1ccc2[nH]cc(CCN(C)C)c2c1` [sumatriptan], the “patients with headache reoccurrence” value in data set [6] was 45%.
